Data from ChEMBL document CHEMBL5303763, “Data for DCP probe BI-3802” (2023).

How the values were obtained:
[1] = target: 5-hydroxytryptamine receptor 5A (Homo sapiens) (UniProt P47898); conditions: Compound concentration 10.0 uM
[2] = target: Sodium-dependent serotonin transporter (Homo sapiens) (UniProt P31645); conditions: Compound concentration 10.0 uM
[3] = target: Histamine H2 receptor (Homo sapiens) (UniProt P25021); conditions: Compound concentration 10.0 uM
[4] = target: Serine/threonine-protein kinase Chk2 (Homo sapiens) (UniProt O96017); assay: CHEK2 Invitrogen Lab (UK) kinase screen (BI); conditions: Compound concentration 1.0 uM
[5] = target: D(3) dopamine receptor (Homo sapiens) (UniProt P35462); conditions: Compound concentration 10.0 uM
Chain of D(3) dopamine receptor (Homo sapiens) (P35462 whole entry): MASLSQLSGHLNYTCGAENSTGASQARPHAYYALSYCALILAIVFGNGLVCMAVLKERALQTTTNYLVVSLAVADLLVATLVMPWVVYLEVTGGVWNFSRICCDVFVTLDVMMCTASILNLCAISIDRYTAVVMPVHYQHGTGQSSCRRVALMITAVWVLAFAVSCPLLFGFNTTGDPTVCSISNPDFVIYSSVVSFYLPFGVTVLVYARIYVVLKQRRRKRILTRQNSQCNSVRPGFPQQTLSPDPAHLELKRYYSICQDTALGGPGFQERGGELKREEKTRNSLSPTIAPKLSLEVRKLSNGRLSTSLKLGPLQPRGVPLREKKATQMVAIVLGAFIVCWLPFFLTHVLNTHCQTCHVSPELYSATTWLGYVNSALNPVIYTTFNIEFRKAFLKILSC

[6] = target: Rho-associated protein kinase 2 (Homo sapiens) (UniProt O75116); assay: ROCK2 Invitrogen Lab (UK) kinase screen (BI); conditions: Compound concentration 1.0 uM
[7] = target: Ribosomal protein S6 kinase alpha-5 (Homo sapiens) (UniProt O75582); assay: RPS6KA5 Invitrogen Lab (UK) kinase screen (BI); conditions: Compound concentration 1.0 uM
[8] = target: Mitogen-activated protein kinase kinase kinase 8 (Homo sapiens) (UniProt P41279); assay: MAP3K8 Invitrogen Lab (UK) kinase screen (BI); conditions: Compound concentration 1.0 uM
[9] = target: Cyclin-dependent kinase 2/cyclin A (Homo sapiens) (UniProt P24941+P20248+P78396); assay: CDK2/CYCLINA Invitrogen Lab (UK) kinase screen (BI); assay type: protein-complex assay; conditions: Compound concentration 1.0 uM
[10] = target: Mitogen-activated protein kinase 1 (Homo sapiens) (UniProt P28482); assay: MAPK1 Invitrogen Lab (UK) kinase screen (BI); conditions: Compound concentration 1.0 uM
[11] = target: Mu-type opioid receptor (Homo sapiens) (UniProt P35372); conditions: Compound concentration 10.0 uM
Chain of Mu-type opioid receptor (Homo sapiens) (P35372 whole entry): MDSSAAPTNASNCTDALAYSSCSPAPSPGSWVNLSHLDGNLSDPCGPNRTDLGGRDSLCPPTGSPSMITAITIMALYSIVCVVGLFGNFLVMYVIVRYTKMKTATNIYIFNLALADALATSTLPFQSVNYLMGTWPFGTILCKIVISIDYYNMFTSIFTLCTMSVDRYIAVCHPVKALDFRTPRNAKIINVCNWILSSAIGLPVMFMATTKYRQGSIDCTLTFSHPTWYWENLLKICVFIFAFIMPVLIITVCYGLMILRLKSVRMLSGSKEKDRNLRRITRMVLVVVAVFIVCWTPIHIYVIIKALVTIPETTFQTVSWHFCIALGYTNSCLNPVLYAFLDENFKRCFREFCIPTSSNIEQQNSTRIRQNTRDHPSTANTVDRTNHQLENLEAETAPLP

[12] = target: Kappa-type opioid receptor (Rattus norvegicus) (UniProt P34975); assay: KAPPA/R Eurofins SafetyScreen44 (BI); conditions: Compound concentration 10.0 uM
[13] = target: Focal adhesion kinase 1 (Homo sapiens) (UniProt Q05397); assay: PTK2 Invitrogen Lab (UK) kinase screen (BI); conditions: Compound concentration 1.0 uM
[14] = target: 5-hydroxytryptamine receptor 2A (Homo sapiens) (UniProt P28223); conditions: Compound concentration 10.0 uM
Chain of 5-hydroxytryptamine receptor 2A (Homo sapiens) (P28223 whole entry): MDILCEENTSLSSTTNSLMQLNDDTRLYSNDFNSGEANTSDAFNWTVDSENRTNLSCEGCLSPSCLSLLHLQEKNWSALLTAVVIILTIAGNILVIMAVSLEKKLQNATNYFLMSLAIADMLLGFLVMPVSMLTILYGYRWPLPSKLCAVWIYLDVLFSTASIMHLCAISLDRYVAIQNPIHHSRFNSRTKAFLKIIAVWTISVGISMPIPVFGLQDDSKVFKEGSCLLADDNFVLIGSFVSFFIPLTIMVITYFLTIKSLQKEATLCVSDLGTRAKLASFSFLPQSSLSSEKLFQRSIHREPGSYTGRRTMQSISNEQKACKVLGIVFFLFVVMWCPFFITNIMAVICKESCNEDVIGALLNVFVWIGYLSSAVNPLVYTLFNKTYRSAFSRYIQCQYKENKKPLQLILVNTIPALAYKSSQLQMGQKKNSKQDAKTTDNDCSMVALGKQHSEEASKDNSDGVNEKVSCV

[15] = target: Platelet-derived growth factor receptor alpha (Homo sapiens) (UniProt P16234); assay: PDGFRA Invitrogen Lab (UK) kinase screen (BI); conditions: Compound concentration 1.0 uM
[16] = target: Dual specificity mitogen-activated protein kinase kinase 6 (Homo sapiens) (UniProt P52564); assay: MAP2K6 Invitrogen Lab (UK) kinase screen (BI); conditions: Compound concentration 1.0 uM
[17] = target: Interleukin-1 receptor-associated kinase 4 (Homo sapiens) (UniProt Q9NWZ3); assay: IRAK4 Invitrogen Lab (UK) kinase screen (BI); conditions: Compound concentration 1.0 uM
[18] = target: SRSF protein kinase 2 (Homo sapiens) (UniProt P78362); assay: SRPK2 Invitrogen Lab (UK) kinase screen (BI); conditions: Compound concentration 1.0 uM
[19] = target: Serine/threonine-protein kinase Chk1 (Homo sapiens) (UniProt O14757); assay: CHEK1 Invitrogen Lab (UK) kinase screen (BI); conditions: Compound concentration 1.0 uM
[20] = target: RAC-beta serine/threonine-protein kinase (Homo sapiens) (UniProt P31751); assay: AKT2 Invitrogen Lab (UK) kinase screen (BI); conditions: Compound concentration 1.0 uM
[21] = target: Glycogen synthase kinase-3 beta (Homo sapiens) (UniProt P49841); assay: GSK3B Invitrogen Lab (UK) kinase screen (BI); conditions: Compound concentration 1.0 uM
[22] = target: Dual specificity mitogen-activated protein kinase kinase 1 (Homo sapiens) (UniProt Q02750); assay: MAP2K1 Invitrogen Lab (UK) kinase screen (BI); conditions: Compound concentration 1.0 uM
[23] = target: 5-hydroxytryptamine receptor 2B (Homo sapiens) (UniProt P41595); conditions: Compound concentration 10.0 uM
Chain of 5-hydroxytryptamine receptor 2B (Homo sapiens) (P41595 whole entry): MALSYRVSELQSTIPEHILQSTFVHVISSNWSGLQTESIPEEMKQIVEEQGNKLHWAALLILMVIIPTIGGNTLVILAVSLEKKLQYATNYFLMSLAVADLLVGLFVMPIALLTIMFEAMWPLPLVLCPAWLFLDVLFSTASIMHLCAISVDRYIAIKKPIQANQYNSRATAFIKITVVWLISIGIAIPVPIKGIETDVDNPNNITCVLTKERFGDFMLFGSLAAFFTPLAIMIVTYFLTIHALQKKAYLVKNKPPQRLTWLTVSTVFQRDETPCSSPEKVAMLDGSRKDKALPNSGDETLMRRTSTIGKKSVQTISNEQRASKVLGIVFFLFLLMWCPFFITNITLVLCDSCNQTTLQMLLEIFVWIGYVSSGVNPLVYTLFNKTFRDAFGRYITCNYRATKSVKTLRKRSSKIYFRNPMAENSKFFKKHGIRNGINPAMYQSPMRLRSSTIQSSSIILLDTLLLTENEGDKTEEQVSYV

[24] = target: Ribosomal protein S6 kinase alpha-3 (Homo sapiens) (UniProt P51812); assay: RPS6KA3 Invitrogen Lab (UK) kinase screen (BI); conditions: Compound concentration 1.0 uM
[25] = target: Sigma non-opioid intracellular receptor 1 (Homo sapiens) (UniProt Q99720); conditions: Compound concentration 10.0 uM
Chain of Sigma non-opioid intracellular receptor 1 (Homo sapiens) (Q99720 whole entry): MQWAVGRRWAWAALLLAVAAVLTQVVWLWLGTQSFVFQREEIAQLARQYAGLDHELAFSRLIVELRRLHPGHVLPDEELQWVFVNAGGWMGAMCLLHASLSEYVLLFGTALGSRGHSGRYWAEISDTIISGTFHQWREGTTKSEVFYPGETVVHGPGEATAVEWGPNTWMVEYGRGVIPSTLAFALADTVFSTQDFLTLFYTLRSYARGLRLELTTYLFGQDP

[26] = target: Myosin light chain kinase 2, skeletal/cardiac muscle (Homo sapiens) (UniProt Q9H1R3); assay: MYLK2 Invitrogen Lab (UK) kinase screen (BI); conditions: Compound concentration 1.0 uM
[27] = target: Fibroblast growth factor receptor 1 (Homo sapiens) (UniProt P11362); assay: FGFR1 Invitrogen Lab (UK) kinase screen (BI); conditions: Compound concentration 1.0 uM
[28] = target: Beta-2 adrenergic receptor (Homo sapiens) (UniProt P07550); conditions: Compound concentration 10.0 uM
Chain of Beta-2 adrenergic receptor (Homo sapiens) (P07550 whole entry, looked up): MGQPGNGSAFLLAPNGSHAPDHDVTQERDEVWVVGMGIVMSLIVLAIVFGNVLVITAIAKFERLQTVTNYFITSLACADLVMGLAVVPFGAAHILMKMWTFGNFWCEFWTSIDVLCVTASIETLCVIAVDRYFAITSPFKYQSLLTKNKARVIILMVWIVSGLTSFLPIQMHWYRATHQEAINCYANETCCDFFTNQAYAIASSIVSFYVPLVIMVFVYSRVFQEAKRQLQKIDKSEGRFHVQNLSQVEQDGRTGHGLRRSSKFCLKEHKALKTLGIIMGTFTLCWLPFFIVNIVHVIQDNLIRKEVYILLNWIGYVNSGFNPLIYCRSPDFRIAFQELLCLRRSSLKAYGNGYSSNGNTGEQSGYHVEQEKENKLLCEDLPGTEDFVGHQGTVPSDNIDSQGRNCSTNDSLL

[29] = target: Beta-3 adrenergic receptor (Homo sapiens) (UniProt P13945); conditions: Compound concentration 10.0 uM
Chain of Beta-3 adrenergic receptor (Homo sapiens) (P13945 whole entry, looked up): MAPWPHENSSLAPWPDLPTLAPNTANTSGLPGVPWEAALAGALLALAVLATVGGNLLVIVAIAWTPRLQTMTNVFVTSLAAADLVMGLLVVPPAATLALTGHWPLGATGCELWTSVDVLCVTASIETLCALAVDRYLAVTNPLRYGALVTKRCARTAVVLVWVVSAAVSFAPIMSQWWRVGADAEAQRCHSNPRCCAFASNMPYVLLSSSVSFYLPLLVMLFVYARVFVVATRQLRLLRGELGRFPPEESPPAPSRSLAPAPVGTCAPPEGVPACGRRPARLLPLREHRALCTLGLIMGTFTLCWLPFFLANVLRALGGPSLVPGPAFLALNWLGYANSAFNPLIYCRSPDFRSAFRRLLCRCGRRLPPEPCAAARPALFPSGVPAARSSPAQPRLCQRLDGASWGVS

[30] = target: MAP kinase-activated protein kinase 3 (Homo sapiens) (UniProt Q16644); assay: MAPKAPK3 Invitrogen Lab (UK) kinase screen (BI); conditions: Compound concentration 1.0 uM
[31] = target: BDNF/NT-3 growth factors receptor (Homo sapiens) (UniProt Q16620); assay: NTRK2 Invitrogen Lab (UK) kinase screen (BI); conditions: Compound concentration 1.0 uM
[32] = target: Aurora kinase B (Homo sapiens) (UniProt Q96GD4); assay: AURKB Invitrogen Lab (UK) kinase screen (BI); conditions: Compound concentration 1.0 uM
[33] = target: Serine/threonine-protein kinase Nek1 (Homo sapiens) (UniProt Q96PY6); assay: NEK1 Invitrogen Lab (UK) kinase screen (BI); conditions: Compound concentration 1.0 uM
[34] = system: Voltage-gated K+ channel Kv1 (Rattus norvegicus); assay: K+/VOLT/RA Eurofins SafetyScreen44 (BI); conditions: rat brain, probe [125I]a-dendrotoxin, read-out: % Ctrl
[35] = target: B-cell CLL/lymphoma 6 member B protein (Homo sapiens, UniProt Q8N143); assay: SPR (BCL6B), Ontario institute for cancer research
[36] = target: Cannabinoid receptor 1 (Homo sapiens) (UniProt P21554); assay: CB1(HU)_AGON Eurofins SafetyScreen44 (BI); conditions: filed as agonist; Compound concentration 10.0 uM
[37] = target: Zinc finger and BTB domain-containing protein 17 (Homo sapiens, UniProt Q13105); assay: SPR (ZBTB17), Ontario institute for cancer research
Chain of Zinc finger and BTB domain-containing protein 17 (Q13105 whole entry, the tested form may be a part): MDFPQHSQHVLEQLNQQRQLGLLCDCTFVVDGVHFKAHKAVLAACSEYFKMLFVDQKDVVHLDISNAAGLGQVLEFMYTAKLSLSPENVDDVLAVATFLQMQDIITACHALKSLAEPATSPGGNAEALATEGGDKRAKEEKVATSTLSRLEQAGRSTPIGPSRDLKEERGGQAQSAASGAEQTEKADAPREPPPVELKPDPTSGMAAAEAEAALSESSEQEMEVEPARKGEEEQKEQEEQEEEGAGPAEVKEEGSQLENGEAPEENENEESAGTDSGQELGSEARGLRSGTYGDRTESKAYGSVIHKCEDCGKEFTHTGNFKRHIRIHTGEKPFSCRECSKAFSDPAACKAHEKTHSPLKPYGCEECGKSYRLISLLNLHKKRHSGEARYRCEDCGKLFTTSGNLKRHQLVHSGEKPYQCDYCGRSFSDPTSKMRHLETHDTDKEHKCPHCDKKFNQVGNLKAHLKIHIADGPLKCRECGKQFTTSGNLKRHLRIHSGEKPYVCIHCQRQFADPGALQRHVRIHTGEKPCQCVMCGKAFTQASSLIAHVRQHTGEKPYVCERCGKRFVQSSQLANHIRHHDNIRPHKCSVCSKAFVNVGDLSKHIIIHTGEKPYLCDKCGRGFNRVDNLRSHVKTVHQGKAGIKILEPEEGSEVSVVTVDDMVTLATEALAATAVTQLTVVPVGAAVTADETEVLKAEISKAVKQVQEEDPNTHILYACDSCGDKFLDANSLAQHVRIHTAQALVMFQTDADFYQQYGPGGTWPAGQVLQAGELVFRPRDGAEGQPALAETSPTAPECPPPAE

[38] = target: Kappa-type opioid receptor (Homo sapiens) (UniProt P41145); assay: KAPPA(KOP)_HU Eurofins SafetyScreen44 (BI); conditions: Compound concentration 10.0 uM

Chain of Sodium-dependent serotonin transporter (Homo sapiens) (P31645 whole entry, looked up): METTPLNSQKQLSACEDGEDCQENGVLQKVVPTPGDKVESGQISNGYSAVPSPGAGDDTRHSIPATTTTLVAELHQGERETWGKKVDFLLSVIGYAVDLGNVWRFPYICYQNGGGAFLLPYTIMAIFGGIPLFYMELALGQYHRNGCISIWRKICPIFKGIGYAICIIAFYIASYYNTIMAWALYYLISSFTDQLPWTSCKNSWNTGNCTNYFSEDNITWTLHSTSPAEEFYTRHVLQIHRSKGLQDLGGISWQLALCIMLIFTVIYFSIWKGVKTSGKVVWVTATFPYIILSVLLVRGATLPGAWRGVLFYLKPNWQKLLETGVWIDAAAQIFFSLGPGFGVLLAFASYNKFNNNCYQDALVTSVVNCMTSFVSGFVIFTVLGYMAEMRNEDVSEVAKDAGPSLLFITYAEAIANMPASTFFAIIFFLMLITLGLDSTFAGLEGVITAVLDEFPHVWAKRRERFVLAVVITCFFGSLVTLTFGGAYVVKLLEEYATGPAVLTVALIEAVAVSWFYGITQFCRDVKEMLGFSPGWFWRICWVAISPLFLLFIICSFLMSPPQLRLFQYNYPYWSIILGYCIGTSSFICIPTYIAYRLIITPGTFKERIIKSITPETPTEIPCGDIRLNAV
Chain of 5-hydroxytryptamine receptor 5A (Homo sapiens) (P47898 whole entry): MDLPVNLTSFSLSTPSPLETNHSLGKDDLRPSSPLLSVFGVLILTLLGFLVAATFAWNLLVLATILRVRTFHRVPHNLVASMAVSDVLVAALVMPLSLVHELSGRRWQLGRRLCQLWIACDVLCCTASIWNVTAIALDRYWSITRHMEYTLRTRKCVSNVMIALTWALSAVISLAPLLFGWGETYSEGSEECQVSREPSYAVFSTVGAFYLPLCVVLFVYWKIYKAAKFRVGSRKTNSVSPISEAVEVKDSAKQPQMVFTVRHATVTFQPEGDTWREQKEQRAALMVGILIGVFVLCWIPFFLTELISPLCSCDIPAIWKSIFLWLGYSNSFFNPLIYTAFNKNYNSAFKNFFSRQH
Chain of Histamine H2 receptor (Homo sapiens) (P25021 whole entry): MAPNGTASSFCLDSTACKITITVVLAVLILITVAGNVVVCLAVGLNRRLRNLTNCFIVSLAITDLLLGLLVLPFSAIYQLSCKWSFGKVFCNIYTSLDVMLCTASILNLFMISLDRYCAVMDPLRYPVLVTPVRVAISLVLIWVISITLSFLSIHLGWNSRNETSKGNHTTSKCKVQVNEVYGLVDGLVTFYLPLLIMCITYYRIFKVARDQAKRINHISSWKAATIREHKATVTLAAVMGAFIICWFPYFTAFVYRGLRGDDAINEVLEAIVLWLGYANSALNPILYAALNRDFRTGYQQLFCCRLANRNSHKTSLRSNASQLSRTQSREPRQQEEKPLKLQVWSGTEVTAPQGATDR

`CNC(=O)COc1cc2cc(Nc3nc(N4C[C@H](C)C[C@H](C)C4)ncc3Cl)ccc2n(C)c1=O` gave an inhibition [1] of 0.2%, an inhibition [2] of 2.53% and an inhibition [3] of 13.9%. For the same compound, the residual activity [4] was 96%, the inhibition [5] was 11.6% and the residual activity [6] was 100%. It also gave a residual activity [7] of 96%, a residual activity [8] of 118% and a residual activity [9] of 102%. For the same compound, the residual activity [10] was 106%, the inhibition [11] was 24.5% and the residual activity [12] was 89%. For the same compound, the residual activity [13] was 106%, the inhibition [14] was -1.56% and the residual activity [15] was 102%. It also gave a residual activity [16] of 84%, a residual activity [17] of 90% and a residual activity [18] of 106%. The residual activity [19] was 89%, the residual activity [20] was 96% and the residual activity [21] was 93%. It also gave a residual activity [22] of 71%, an inhibition [23] of -5.25% and a residual activity [24] of 89%. For the same compound, the inhibition [25] was 19.9%, the residual activity [26] was 90% and the residual activity [27] was 111%. For the same compound, the inhibition [28] was -8.13%, the inhibition [29] was -4.02% and the residual activity [30] was 97%. The residual activity [31] was 99%, the residual activity [32] was 97% and the residual activity [33] was 101%.
With `C[C@@H]1C[C@H](C)CN(c2ncc(Cl)c(Nc3ccc4c(c3)cc(OC(C)(C)C(=O)O)c(=O)n4C)n2)C1` the activity at 10 µM [34] was 97% (not active), the Kd [35] was “No binding” and the residual activity [36] was 95%. The Kd [37] was “No binding” and the residual activity [38] was 86%.
